In US4166113A, “Cardiotonic agent” (University of Hawaii, priority 1978, dated 1979):

Legend:
Isoelectric focusing = format: physicochemical
Text: For the purpose of obtaining electrophoretic and amino acid analysis the anthopleurin-B obtained in Example 1, below, was rechromatographed on CM Sephadex C-25, Sephadex G-50 and G-10 according to the process set forth in Example 1, Steps c, d and e, respectively. The doubly purified material was subject to electrophoretic analysis using commercially available pre-cast 12% acrylamide gels and matched buffer systems obtained from Bio.Rad Laboratories, 32nd and Griffin, Richmond, California.
Isoelectric focusing gave the isoelectric point at a pH=9.05. Disc gel electrophoresis with 12% polyacrylamide gel at pH 3.6 gave an Rf value of 0.64 versus methyl green tracking dye. […] Sodium dodecyl sulfate (SDS) disc gel electrophoresis using a 10% gel indicated a m.w. of about 5,200 after incubation with dithioerythritol, using RNase A and pancreatic trypsin inhibitor (PTI) for comparison. The molecular weight is so low that these values are only approximate. […] Acid hydrolysis indicated the approximate following amino acid composition: (Asp or Asn)5, Thr1 Ser4, (Glu or Gln)1, Pro5, Gly7, Ala2, (Cys/2)6 Val1, Ile2, Leu2, Tyr1, Phe1, Lys3, His2, Arg2, Trp2.

[1] = Solubility in deionized water; format: physicochemical
Stability (pH, storage) = format: physicochemical
isolated rat atria = assay: Bioassay for positive inotropic effect on isolated rat atria; format: cell-based
Text: The sea anemones are homogenized and extracted with water or with a solution of water and a water miscible organic solvent. The crude extract, containing anthopleurin-B, is subjected to gel filtration to give a forty-fold increase in purity of anthopleurin-B. Alternatively, semipermeable membranes may be used to accomplish the results obtained by gel filtration. Cation exchange chromatography provides an excellent separation of anthopleurin-B in a purity of about 30-40% depending on the particular collection of anemones. […] To obtain analytically pure salt-free material the above material is further purified by gel filtration, cation-exchange chromatography and gel adsorption chromatography. All the separation procedures in the present invention are monitored by bioassay using the isolated rat atria for determination of positive inotropic effect using the procedure described in the section headed Bioassay.
Bioassays of the solutions containing anthopleurin-B are performed on isolated atria of rat hearts. […]
The spontaneously beating atrial preparation is connected by a thin silk thread to a force-displacement transducer (Grass Model FT.03), and the contractile movements are recorded on a six-channel polygraph Grass Model 7. […]

anthopleurin-B [AP-B]
isoelectric point (Isoelectric focusing): 9.05 pH | solubility [1]: very soluble | storage stability (Stability (pH, storage); -20° C. for a year, as lyophilized fraction C or fraction G): no signs of deterioration | stability versus pH (Stability (pH, storage); neutral and lower pH values): relatively stable | stability of dry form (Stability (pH, storage); sterile powdered lyophilized, room temperature): stable at room temperature | potency in positive inotropic effect relative to ouabain (isolated rat atria; as potent as ouabain): 200-1000 x | chronotropic effect (isolated rat atria; isolated rat atria, beat rate): does not show any chronotropic effect
